Data taken from publication PMC8235719, “New RAD51 Inhibitors to Target Homologous Recombination in Human Cells” (Genes, 2021).
In brackets after ≈: the same amount, converted by molar mass. Read-outs that look alike come from different tables or passages of the source. One block for each compound: values may come before it.

What was measured:
[1] = system: HR in human U-2 OS IndDR-GFP cells; experiment: Inducible I-SceI DR-GFP assay (IndDR-GFP), inhibition of HR; type: cell-based; conditions: Homo sapiens, U2OS; U-2 OS IndDR-GFP cells; 24 h with compound; ± SD; read-out: IC50, efficiency of HR inhibition in IndDR-GFP assay
Protocol: Exponentially growing U-2 OS IndDR-GFP cells were seeded at a density of 2 × 10^5 cells/well into 6-well plates with DMEM media containing 80 µg/mL G418 and indicated concentrations of RAD51i(s). For I-SceI induced samples, the media were supplemented with 0.5 µM Shield1 (Clontech, Mountain View, CA, USA) with 100 nM triamcinolone acetonide (Sigma, St. Louis, MO, USA). After 24 h of incubation, the media were removed, cells were washed with the DMEM, and the incubation continued for 48 h in DMEM containing 100 units/mL penicillin, 100 µg/mL streptomycin, and 80 µg/mL G418. Then, cells were trypsinized, trypsin solution was neutralized with an equal volume of media, and 10% formaldehyde solution in PBS was added for fixation to reach a final concentration of formaldehyde of 3.3%. The yield of GFP-positive cells indicative of HR activity was measured by flow cytometry with the Guava easyCyte system, and the data were analyzed with the InCyte program (Millipore; Burlington, VT, USA).

MDA-MB-231 cells = experiment: Cell viability assay (Guava ViaCount flow cytometry), MDA-MB-231; type: cell-based, human; conditions: Homo sapiens
Protocol: (§1) For all cell viability experiments, except experiments involving MMS treatment, cells were seeded into the media containing indicated concentrations of tested compounds or corresponding amounts of DMSO in controls. The concentration of DMSO in media was 0.1%. MDA-MB-231 cells were seeded into 24-well plates at 3.5 × 10^4 cells/well for cells for a 4-day treatment or at 5000 cells/well for a 10-day treatment. MCF 10A cells were seeded into 24-well plates at 1.5 × 10^4 cells/well for a 4-day treatment or at 500 cells/well for a 10-day treatment. In the case of 10-day treatments, the media with compounds were renewed twice on the 4th and the 7th days of treatments. After completion of the treatments, cells were harvested, and their viability was determined by flow cytometry with Guava ViaCount reagent (Luminex; Austin, TX USA). Data were analyzed using the Guava ViaCount software (Millipore; Burlington, VT, USA). The IC50 values were calculated using the GraphPad Prism 5 software (San Diego, CA, USA).

[2] = system: RAD51 foci in U-2 OS IndDR-GFP cells; set-up: method as in PMID 24971740; conditions: earlier work; cited from earlier work
[3] = system: HR in U-2 OS DR-GFP cells; experiment: Canonical DR-GFP assay, inhibition of HR; type: cell-based; conditions: Homo sapiens, U2OS
HsRAD51 [4] = biological target: T1, HsRAD51 (Homo sapiens, UniProt Q06609); set-up: method as in PMID 22380680; conditions: earlier work; cited from earlier work
T1 sequence (Q06609 1-339): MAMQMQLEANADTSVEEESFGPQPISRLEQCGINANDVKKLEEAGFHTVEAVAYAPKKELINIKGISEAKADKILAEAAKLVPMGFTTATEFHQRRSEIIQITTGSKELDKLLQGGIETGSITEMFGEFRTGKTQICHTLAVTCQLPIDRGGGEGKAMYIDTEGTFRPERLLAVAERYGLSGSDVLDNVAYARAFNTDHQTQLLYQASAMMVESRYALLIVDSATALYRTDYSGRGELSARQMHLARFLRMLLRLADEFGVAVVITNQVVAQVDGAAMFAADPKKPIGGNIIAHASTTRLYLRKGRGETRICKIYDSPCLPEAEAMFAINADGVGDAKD

HsRAD51 [5] = biological target: T1, HsRAD51; experiment: Surface plasmon resonance (SPR) binding to immobilized RAD51; conditions: 25 °C, equilibrium analysis, ± SD, read-out: KD, equilibrium dissociation constant of direct binding to hRAD51
Protocol: The binding of RAD51i to RAD51 was examined using a ProteOn XPR36 SPR Protein Interaction Array System (Bio-Rad, Hercules, CA, USA) at 25 °C. ProteOn GLH sensor chips were preconditioned with two 10 s pulses of 50 mM NaOH, 100 mM HCl, and 0.5% SDS followed by the system equilibration with the running buffer (20 mM sodium phosphate, 150 mM NaCl, and 0.005% Tween 20, pH 7.4). The surface of a GLH sensorchip was subsequently activated with a 1:100 dilution of a 1:1 mixture of 0.2 M EDC and 0.05 M Sulfo-NHS. Purified HsRAD51 was diluted to 500 µg/mL in 10 mM sodium acetate, pH 5.5, and injected immediately after chip activation across the ligand flow channels at 30 µL/min for 5 min. Unreacted protein was washed out, and the excess of unreacted ester groups on the sensor surface was capped by an injection of 1 M ethanolamine-HCl, pH 8.0, at 5 µL/min for 5 min. A reference surface to correct for nonspecific binding was similarly created by immobilizing an IgG b12 anti-HIV-1 gp120 antibody (IgG b12 anti-HIV-1 gp120; was obtained through the NIH AIDS Reagent Program, Division of AIDS, NIAID, NIH: Anti-HIV-1 gp120 Monoclonal (IgG1 b12) from Drs. Dennis Burton and Carlos Barbas). Serial dilutions of the compounds were prepared in the running buffer supplemented with 8% DMSO and injected at a flow rate of 100 μL/min for a 1 min association phase, followed by a 5 min dissociation phase using the “one-shot kinetics” functionality of the ProteOn instrument. Data were analyzed with ProteOn Manager Software version 3.0 (Bio-Rad; Hercules, CA, USA). The responses from the reference flow cell were subtracted to account for the non-specific binding and injection artifacts. Experiments were repeated at least three times. The equilibrium dissociation constants (KD) for the interactions were calculated in ProteOn Manager Version 3.1.0.6 (Bio-Rad; Hercules, CA, USA) using the equilibrium analysis function.

MCF 10A cells = experiment: Cell viability assay (Guava ViaCount flow cytometry), MCF 10A; type: cell-based, human; conditions: 4-day treatment
Protocol: as §1

Solubility in DMSO = type: physicochemical; conditions: organic solvent or mixture; in 100% DMSO; read-out: Maximal soluble concentration

SMILES: O=c1nc(/C=C/c2cccnc2)n(Cc2ccccc2Cl)c2ccccc12 [o-Cl-B02-iso]
IC50 [1]: 5560 ± 490 nM

SMILES: O=C(c1cc(Cc2n[nH]c(=O)c3ccccc23)ccc1F)N1CCN(C(=O)C2CC2)CC1 [olaparib, reference compound]
IC50 (MDA-MB-231 cells; MDA-MB-231, 240 h, MDA-MB-231, 10-day treatment, olaparib only (DMSO), read-out: IC50 of olaparib, cell viability): 8.6 µM
IC50 (MDA-MB-231 cells; MDA-MB-231, 240 h, MDA-MB-231 transfected with antiRAD51 siRNA_A, 10 days olaparib, read-out: IC50 of olaparib, cell viability): 3.2 µM
IC50 (MDA-MB-231 cells; MDA-MB-231, 240 h, MDA-MB-231 transfected with scrambled siRNA, 10 days olaparib, read-out: IC50 of olaparib, cell viability): 6.3 µM

SMILES: O=c1c2ccccc2nc(/C=C/c2cccnc2)n1Cc1ccccc1 [B02]
RAD51 foci formation induced by cisplatin [2]: disrupts RAD51 foci formation
IC50 [3]: 17.9 ± 3.5 µM
IC50 [1]: 17700 ± 3890 nM
Binding to RAD51 in vitro by SPR (HsRAD51 [4]): binds to RAD51 directly in vitro

SMILES: O=c1nc(/C=C/c2cccnc2)n(Cc2ccccc2Br)c2ccccc12 [o-Br-B02-iso]
IC50 [1]: 4600 ± 1280 nM

Further lines, with some results ahead:

IC50 [1]: 900 ± 180 nM
Kd (HsRAD51 [5]): 8.4 ± 1.8 µM
SMILES: O=c1nc(/C=C/c2cccnc2)n(Cc2cccc(Br)c2)c2ccccc12 [m-Br-B02-iso]

IC50 (MDA-MB-231 cells; MDA-MB-231, 96 h, MDA-MB-231, 4-day treatment, read-out: IC50 of cell viability): 1.1 µM
IC50 [1]: 720 ± 70 nM
Kd (HsRAD51 [5]): 1.4 ± 0.6 µM
SMILES: O=c1nc(/C=C/c2cccnc2)n(Cc2ccc(I)cc2)c2ccccc12 [p-I-B02-iso]
Times lower sensitivity of MCF 10A compared with MDA-MB-231 (MCF 10A cells; ratio of IC50): approximately 3
IC50 (MCF 10A cells; Homo sapiens, 96 h, MCF 10A): 2700 nM

IC50 [1]: 860 ± 20 nM
SMILES: O=c1nc(/C=C/c2cccnc2)n(Cc2cccc(I)c2)c2ccccc12 [m-I-B02-iso]

solubility (Solubility in DMSO): 500 µM (≈ 209 µg/mL)
IC50 [1]: 800 ± 100 nM
SMILES: O=c1nc(/C=C/c2cccnc2)n(Cc2ccc(Br)cc2)c2ccccc12 [p-Br-B02-iso]
